Results from US7923465B2, “Cannabinoid receptor ligands, pharmaceutical compositions containing them, and process for their preparation” (priority 2005, dated 2011).
Where two headings read alike, the source gives them in different places.

Assays:
CB1 [1] = biological target: T1, CB1 (Rattus norvegicus, UniProt P20272); assay: GTPγS binding assay, CB1 functional assay in rat cerebellar membrane (Protocol VIII); assay type: biochemical; set-up: 10 μg rat cerebellum membrane; from tissue; host or cells: rat cerebellum membrane, prepared in-house; details: for activation at 1 µM / Per Se % Stimulation: tested at 1 uM; for inhibition at 1 µM / % Inhibition of WIN-55212-2 induced stimulation: tested at 1 uM in presence of 1 μM WIN 55,212-2
Description: VIII. Protocol for GTPγS Binding Assay (CB1 Functional Assay in Rat Cerebellar Membrane)
In this GTPγS binding assay, total, basal and nonspecific binding were determined. See Griffin G., Atkinson P. J., Showalter V. M., Martin B. R. and Abood M. E., “Evaluation of cannabinoid receptor agonists and antagonists using the Guanosine-5′-O-(3-(^35S)thio)-triphosphate binding assay in rat cerebellar membranes,” J Pharmacol Exp Ther 285: 553-560, 1998. Three wells for total binding, three wells for basal binding, and three wells for nonspecific binding at 0.2 nM concentration of radioligand were used. Basal binding was defined by 50 μM GDP (Guanosine diphosphate) and non-specific binding was defined by 10 μM unlabeled GTPγS. 10 μg rat cerebellum membrane, 50 μM of GDP, WIN-55212-2 or test compound (1 μM or 300 nM), 10 μM unlabeled GTPγs, and 0.2 nM of [^35S]GTPγS were added into a 96 well plate and the final volume of the reaction mixture was made with GTPγS buffer (50 mM Tris, 3 mM anhydrous MgCl2, 0.2 mM EGTA and 100 mM NaCl pH 7.4) to 200 μl. The plates were incubated at 30° C. for 1 hour. Then the reaction was stopped by filtration using a Whatman GF/B-96 microfilter plate. Three washings were given using Tris-HCl. The radioactivity bound to the brain membrane was retained on the filter disks to which scintillation fluid was added (Microscint PS). Then plates were read for radioactive counts using a Beta Liquid Scintillation Counter (Packard Instruments, Ill., USA).
The rat cerebellar brain membrane was prepared as follow: • 1. Sacrifice the rat and take out the whole brain and separate cerebellum as fast as possible and keep it on ice. • 2. Take the weight of the cerebellum and homogenize in 30 ml of homogenizing buffer (50 mM Tris-HCL containing 1 mM EDTA and 5% sucrose, pH 7.5) using homogenizer in cold condition. • 3. Centrifuge the homogenized cerebellum at 18000 rpm (38000 g) for 15 min at 4° C. • 4. Resuspend the pellet in 5 ml 50 mM Tris-HCL containing 1 mM EDTA and keep it on ice for 30 min. • 5. Pass the membrane through insulin syringe to ensure uniform suspension. • 6. Centrifuge the membrane at 18000 rpm at 4° C. for 20 min. • 7. Reconstitute the pellet in 3 ml of GTPγS buffer and estimate the protein by BCA assay and store the membrane in aliquots of 1000 μg of protein. CB1 Agonist and Antagonist Activity Screening Assay
The test compounds were screened at a final concentration of 1 μM or 300 nM in the absence and presence of 1 μM of WIN 55, 212-2 in the same manner as described in the GTPγS binding assay.
An agonist will stimulate the GTPγS binding over the basal.
An inverse agonist will decrease the basal GTPγS binding and/or produce more than 100% inhibition of the agonist (WIN-55212-2) induced stimulation.
The percent stimulation of GTPγS binding by each test compound at 1 μM or 300 nM concentration in the absence and presence of 1 μM WIN 55, 212-2 was calculated by comparing it with basal specific bound (Basal binding—Non Specific binding) values.

CB1 [2] = biological target: T1, CB1; assay: Rat CB1 receptor binding using brain membrane, [3H]SR141716A displacement (Protocol I); set-up: CB1 receptor present in a rat brain membrane preparation; from tissue; host or cells: rat brain membrane; inhibition: dose or concentration left out as unconfirmed; details: for inhibition: 1 h
hCB2 = hCB2 (Homo sapiens, UniProt P34972); assay: In vitro binding assay using hCB2-CHO membranes, [3H]-CP-55,940 displacement (Protocol IV); set-up: expressed in transfected cells; host or cells: CHO (hCB2-CHO, generated in-house); details: hCB2-CHO membranes, [3H]-CP-55,940 displacement; for inhibition at 0.3 µM: 1 h, read-out: % Displacement Protocol IV
Outline: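 Compounds were tested at a single 300 nM final concentration for displacing 0.75 nM [3H]-CP-55,940 from hCB2-CHO membranes (1 h, 30 °C, 50 mM Tris pH 7.4, 5 mM MgCl2, 1 mM EDTA, 0.1% BSA). Filter-bound radioactivity was counted, with 0.5 μM unlabelled CP-55,940 for nonspecific binding; results are % displacement.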

[3] = 1 h, GTPγS binding over basal, rat cerebellar membrane, read-out: Per Se % Stimulation
[4] = GTPγS binding, read-out: % Inhibition of WIN-55212-2 induced stimulation
[5] = rat brain membrane, [3H]SR141716A displacement, read-out: % Displacement Protocol I
[6] = GTPγS binding over basal, rat cerebellar membrane
[7] = rat brain membrane, [3H]SR141716A displacement

Sequence of hCB2 (P34972 whole entry): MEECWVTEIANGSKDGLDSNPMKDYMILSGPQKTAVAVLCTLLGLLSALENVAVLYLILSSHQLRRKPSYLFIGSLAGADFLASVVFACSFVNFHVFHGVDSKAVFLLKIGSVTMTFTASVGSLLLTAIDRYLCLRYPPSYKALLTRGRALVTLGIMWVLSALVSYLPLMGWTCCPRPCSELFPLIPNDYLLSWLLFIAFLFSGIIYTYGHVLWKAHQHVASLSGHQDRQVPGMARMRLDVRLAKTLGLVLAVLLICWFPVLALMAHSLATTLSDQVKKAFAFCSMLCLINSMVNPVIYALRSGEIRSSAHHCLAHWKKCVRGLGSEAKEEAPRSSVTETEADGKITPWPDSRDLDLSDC
T1 sequence (P20272 whole entry): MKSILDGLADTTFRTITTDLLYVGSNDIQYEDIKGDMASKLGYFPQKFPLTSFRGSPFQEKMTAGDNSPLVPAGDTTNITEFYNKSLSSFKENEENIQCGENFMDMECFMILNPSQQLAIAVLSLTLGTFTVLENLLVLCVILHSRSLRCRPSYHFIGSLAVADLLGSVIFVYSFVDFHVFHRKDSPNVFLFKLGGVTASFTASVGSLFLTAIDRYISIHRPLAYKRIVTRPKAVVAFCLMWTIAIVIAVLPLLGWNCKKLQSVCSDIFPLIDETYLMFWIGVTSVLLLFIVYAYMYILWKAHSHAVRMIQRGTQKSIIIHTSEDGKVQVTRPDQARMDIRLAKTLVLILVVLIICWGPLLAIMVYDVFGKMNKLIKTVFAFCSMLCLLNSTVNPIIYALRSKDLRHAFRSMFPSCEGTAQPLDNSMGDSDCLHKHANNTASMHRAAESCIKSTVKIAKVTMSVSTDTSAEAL

Row | SMILES | activation at 1 µM (CB1 [1]; [3]) | inhibition at 1 µM (CB1 [1]; [4]) | inhibition (CB1 [2]; [5]) | melting point | other results
1 | CN(NC(=O)c1nn(-c2ccc(Cl)cc2)c2c1C1CC3CC(C1)CC2C3)C1CCCCC1 [Example 107, N(7)-(N-cyclohexyl-N-methylamino)-5-(4-chlorophenyl)-5,6-diazatetracyclo[7.3.1.1^3,11.0^4,8]tetradeca-4(8),6-diene-7-carboxamide] | 4% | 71.5% | 97.4% | 219 °C | 
2 | O=C(NCc1ccccc1Cl)c1nn(-c2ccc(Cl)cc2)c2c1C1CC3CC(C1)CC2C3 [Example 111, N(7)-(2-Chlorobenzyl)-5-(4-chlorophenyl)-5,6-diazatetracyclo[7.3.1.1^3,11.0^4,8]tetradeca-4(8),6-diene-7-carboxamide] | 6.1% | 101% | 111% | 162 to 164 °C | 
3 | O=C(NNc1ccc(Cl)cc1Cl)c1nn(-c2ccc(Cl)cc2)c2c1C1CC3CC(C1)CC2C3 [Example 126, N(7)-(2,4-Dichlorophenylamino)-5-(4-chlorophenyl)-5,6-diazatetracyclo[7.3.1.1^3,11.0^4,8]tetradeca-4(8),6-diene-7-carboxamide] | -7.9% | 104% | 118% |  | 
4 | CN(NC(=O)c1nn(-c2ccc(Cl)cc2)c2c1C1CC3CC(C1)CC2C3)c1ccc(Cl)cc1Cl [Example 127] |  |  |  |  | Per Se % Stimulation (CB1 [1]; [6]): 18.0%; % Inhibition of WIN-55212-2 induced stimulation (CB1 [1]; GTPγS binding): 100.2%; % Displacement Protocol I (CB1 [2]; [7]): 85.3%
5 | O=C(NCc1ccccc1)c1nn(-c2ccc(Cl)cc2)c2c1C1CC3CC(C1)CC2C3 [Example 139, N(7)-Benzyl-5-(4′-chlorophenyl)-5,6-diazatetracyclo[7.3.1.1^3,11.0^4,8]tetradeca-4(8)-6-diene-7-carboxamide] |  |  |  |  | Per Se % Stimulation (CB1 [1]; [6]): −8.5%; % Inhibition of WIN-55212-2 induced stimulation (CB1 [1]; GTPγS binding): 109.1%; % Displacement Protocol I (CB1 [2]; [7]): 62.4%
6 | O=C(NN(c1ccccc1)c1ccccc1)c1nn(-c2ccc(Cl)cc2Cl)c2c1C1CC3CC(C1)CC2C3 [Example 177, N(7)-(N′,N′-Diphenylimino)-5-(2,4-dichlorophenyl)-5,6-diazatetracyclo[7.3.1.1^3,11.0^4,8]tetradeca-4(8),6-diene-7-carboxamide] |  |  |  |  | Per Se % Stimulation (CB1 [1]; [6]): 9.7%; % Inhibition of WIN-55212-2 induced stimulation (CB1 [1]; GTPγS binding): 109.1%; % Displacement Protocol I (CB1 [2]; [7]): 75.6%; % Displacement Protocol IV (hCB2): 15.26%
7 | O=C(NN1CCCCC1)c1nn(-c2ccc(Cl)cc2Cl)c2c1C1CC3CC(C1)CC2C3 [Example 180, N(7)-piperidino-5-(2′,4′-dichlorophenyl)-5,6-diazatetracyclo[7.3.1.1^3,11.0^4,8]tetradeca-4(8),6-diene-7-carboxamide] | 10% | 87.9% | 40.6% |  | inhibition at 0.3 µM (hCB2): 13.2%
8 | O=C(NNc1ccc(Cl)cc1Cl)c1n[nH]c2c1C1(c3ccc(Cl)cc3)CCC2C1 (stereo not shown) [Example 230, N(3)-[(2,4-Dichlorophenyl)amino]-4-(4-chlorophenyl)-4,5,6,7-tetrahydro-1H-4,7-methano-indazole-3-carboxamide] | 42.4% | 99.4% | 87.2% |  | 
9 | O=C(NC1CCCCC1)c1nn(-c2ccc(Cl)cc2Cl)c2c1C1CCC2C1 (stereo not shown) [Example 237, N(3)-Cyclohexyl-1-(2,4-dichlorophenyl)-4,5,6,7-tetrahydro-1H-4,7-methano-indazole-3-carboxamide] | 7.1% | 74.7% | 65.6% |  | 
10 | O=C(NC12CC3CC(CC(C3)C1)C2)c1nn(-c2ccc(Cl)cc2Cl)c2c1C1CCC2C1 (stereo not shown) [Example 242, N(3)-(Adamantan-1yl)-1-(2,4-dichlorophenyl)-4,5,6,7-tetrahydro-1H-4,7-methano-indazole-3-carboxamide] |  |  |  | 201 to 204 °C | activation at 0.3 µM (CB1 [1]; 1 h, GTPγS binding over basal, rat cerebellar membrane, tested at 300 nM, read-out: Per Se % Stimulation): 33.4%; inhibition at 0.3 µM (CB1 [1]; GTPγS binding, tested at 300 nM in presence of 1 μM WIN 55,212-2, read-out: % Inhibition of WIN-55212-2 induced stimulation): 22.9%
11 | O=C(NNc1ccccc1F)c1nn(-c2ccc(Cl)cc2Cl)c2c1C1CCC2C1 (stereo not shown) [Example 264, N(3)-[(2-Fluorophenyl)amino]-1-(2,4-dichlorophenyl)-4,5,6,7-tetrahydro-1H-4,7-methano-indazole-3-carboxamide] | -0.1% | 94.5% | 85.6% |  | 
12 | O=C(NCc1ccccc1)c1nn(-c2ccc(Cl)cc2Cl)c2c1C1CCC2C1 (stereo not shown) [Example 269, N(5)-benzyl-3-(2′,4′-dichlorophenyl)-3,4-diazatricyclo[5.2.1.0^2,6]deca-2(6),4-diene-5-carboxamide] | 6% | 91.4% | 47.7% |  | 
13 | O=C(NN1CCCCC1)c1nn(-c2ccc(Br)cc2)c2c1C1CCC2C1 (stereo not shown) [Example 274, N(3)-Piperidino-1-(4-bromophenyl)-4,5,6,7-tetrahydro-1H-4,7-methano-indazole-3-carboxamide] |  |  | 25.7% | 173 °C | inhibition at 0.3 µM (hCB2): 35.4%
14 | O=C(NCc1ccccc1)c1nn(-c2ccc(Br)cc2)c2c1C1CCC2C1 (stereo not shown) [Example 276, N(3)-Benzyl-1-(4-bromophenyl)-4,5,6,7-tetrahydro-1H-4,7-methano-indazole-3-carboxamide] |  |  | 25.3% | 89 °C | inhibition at 0.3 µM (hCB2): 14.1%
15 | O=C(NNc1ccccc1)c1nn(-c2ccc(Br)cc2)c2c1C1CCC2C1 (stereo not shown) [Example 277, N(3)-Phenylamino-1-(4-bromophenyl)-4,5,6,7-tetrahydro-1H-4,7-methano-indazole-3-carboxamide] |  |  | -12.8% | 138 °C | inhibition at 0.3 µM (hCB2): 22.1%
16 | O=C(NNc1ccccc1)c1nn(-c2ccc(F)cc2)c2c1C1CCC2C1 (stereo not shown) [Example 284, N(3)-Phenylamino-1-(4-fluorophenyl)-4,5,6,7-tetrahydro-1H-4,7-methano-indazole-3-carboxamide] |  |  | 13.7% | 163 °C | inhibition at 0.3 µM (hCB2): 0.9%
17 | Cl.O=C(NN1CCCCC1)c1nn(-c2ccc(Cl)cc2Cl)c2c1C1CCC2c2ccccc21 (stereo not shown) [Example 503, N(12)-Piperidino-10-(2,4-dichlorophenyl)-10,11-diazatetracyclo[6.5.2.0^2,7.0^9,13]pentadeca-2,4,6,9(13),11-pentaene-12-carboxamide hydrochloride] |  |  |  |  | Per Se % Stimulation (CB1 [1]; [6]): 1.5%; % Inhibition of WIN-55212-2 induced stimulation (CB1 [1]; GTPγS binding): 92.0%; inhibition (CB1 [2]; read-out: % Displacement Protocol I, rat brain membrane, [3H]SR141716A displacement): 81.2%
